Like-named read-outs stand apart in the source and are kept apart here. *1 amine or outer side, *2 acyl side, *3 side chain or, on linkers, in order; H or OH if unused. Where a SMILES comes first, the peptide text is derived from it. Bridges are numbered along the chain shown (N, C = ends). [ ]: non-standard residue; d: D form. The star is where a group is joined. TATA = O=C(CC[*:1])N1CN(C(=O)CC[*:2])CN(C(=O)CC[*:3])C1; NOTA = O=C(O)CN1CCN(CC(=O)O)CCN(CC(=O)*)CC1; Hyp = O=C(O)[C@@H]1C[C@@H](O)CN1; hArg = N=C(N)NCCCC[C@H](N)C(=O)O; PEG2 = NCCOCCOCCC(=O)O; Sar = CNCC(=O)O
Experiment: Ex vivo biodistribution
Parameters: species or system NSG mice
Settings: both sexes, NSG, mouse, in vivo, iv, 80 uCi, total radioactivity, mean ± SEM (n = 4 or 5); for tissue uptake at 5 min / tissue to tissue ratio at 5 min: 5 min p.i.; for tissue uptake at 5 min / tissue uptake at 0.5 h / tissue uptake at 1 h / tissue uptake at 1.5 h / tissue uptake at 2 h: i.v.; for tissue to tissue ratio at 5 min / tissue to tissue ratio at 0.5 h / tissue to tissue ratio at 1 h / tissue to tissue ratio at 1.5 h: dimensionless; for tissue uptake at 0.5 h / tissue to tissue ratio at 0.5 h: 30 min p.i.; for tissue uptake at 1 h / tissue to tissue ratio at 1 h: 60 min p.i.; for tissue uptake at 1.5 h / tissue to tissue ratio at 1.5 h: 90 min p.i.; for tissue uptake at 2 h: 120 min p.i.
Method: Animal studies were performed under Johns Hopkins University Animal Care and Use Committee (ACUC)-approved protocol (Principal investigator: Sridhar Nimmagadda, Ph.D. and Protocol number M021M175). Male and Female NSG mice (5-6 weeks old) were purchased from JHU immunocompromised core and used to establish xenografts by administering cells subcutaneously (top right flank, unless otherwise noted) to form various tumor models within 3-4 weeks. Following cell numbers were used: Panc1, AsPC1, BxPC3 (1 M), Hs766T and SU8686 (2 M), CFPAC and Panc1005 (5 M). Imaging or biodistribution studies (n = 3-5) were conducted on mice with tumor volumes of 100-200 mm^3. The Panc1 orthotopic tumor model was established by surgically implanting a 3-5 mm^3 section of Panc1 tumor xenograft directly onto the pancreas. The implanted tumors were allowed to grow and were ready for imaging after 10 days of implantation.
Mice with 100-200 mm^3 tumor volume were used for ex vivo biodistribution studies. For radiotracer pharmacokinetics and dosimetry studies, mice with Panc1 tumor xenograft received ~80 µCi (2.96 MBq) [^68Ga]AJ201 and were sacrificed at pre-determined time points (5, 30, 60, 90 and 120 min). All other mice were injected with ~50 µCi (1.85 MBq; 0.2 to 0.5 nmol) Ga-68 labeled radiotracer and were sacrificed at 60 min. The selected tissues were collected, weighed, counted, and their %ID/g values calculated for biodistribution analysis. For pharmacokinetics and dosimetry studies, selected tissues included blood, muscle, tumor, thymus, heart, lung, liver, pancreas, stomach, small intestine, large intestine, spleen, adrenals, kidney, bladder, femur, brain and tumor xenografts. For other studies, selected tissues were blood, muscle, tumor, heart, lung, liver, pancreas, small intestine, spleen, kidney.

[1] = read-out: Stomach with contents uptake

For `CC(C)C[C@@H]1NC(=O)[C@@H]2CSCCC(=O)N3CN(CN(C3)C(=O)CCSC[C@H](NC(=O)[C@H](CC(=O)O)NC(=O)[C@H](CCCCNC(=N)N)NC(=O)[C@H](C)NC(=O)CNC(=O)CN(C)C(=O)CN(C)C(=O)CN(C)C(=O)[C@H](CCCNC(=N)N)NC(=O)CNC(=O)CCOCCOCCNC(=O)CN3CCN(CC(=O)O)CCN(CC(=O)O)CC3)C(=O)N3C[C@H](O)C[C@H]3C(=O)N[C@@H](CC(C)C)C(=O)N[C@@H](C(C)C)C(=O)N[C@@H](CC(N)=O)C(=O)N3CCC[C@H]3C(=O)N[C@@H](CC(C)C)C(=O)N2)C(=O)CCSC[C@@H](C(N)=O)NC(=O)[C@H](CCCCNC(=N)N)NC(=O)[C@H](Cc2c[nH]c3ccccc23)NC(=O)[C@@H](CC(=O)O)NC(=O)[C@@H]2CCCN2C(=O)[C@H](Cc2c[nH]cn2)NC1=O` [[^68Ga]AJ201, metal not drawn] ({NOTA-PEG2}-GR[Sar][Sar][Sar]GA[hArg]DC[Hyp]LVNPLCLHP[dD]W[hArg]C-NH2; linker 10-17-24 via TATA), the tissue uptake at 5 min (read-out: Blood uptake) was 8.2 ± 0.92 %ID/g, the tissue uptake at 5 min (read-out: Brain uptake) was 0.4 ± 0.08 %ID/g and the tissue uptake at 5 min (read-out: Heart uptake) was 4.19 ± 1.06 %ID/g. For the same compound, the tissue uptake at 5 min (read-out: Liver uptake) was 4.25 ± 0.99 %ID/g, the tissue uptake at 5 min (read-out: Lung uptake) was 8.24 ± 0.93 %ID/g and the tissue uptake at 5 min (read-out: Muscle uptake) was 1.79 ± 0.24 %ID/g. For the same compound, the tissue uptake at 5 min (read-out: Pancreas uptake) was 3.24 ± 0.08 %ID/g, the tissue uptake at 5 min [1] was 1.8 ± 0.39 %ID/g and the tissue uptake at 5 min (read-out: Thymus uptake) was 4.61 ± 0.51 %ID/g. The tissue uptake at 5 min (read-out: Tumor uptake) was 7.06 ± 0.48 %ID/g, the tissue to tissue ratio at 5 min (read-out: Tumor/Muscle ratio) was 4.12 ± 0.66 and the tissue to tissue ratio at 5 min (read-out: Tumor/Pancreas ratio) was 2.18 ± 0.14. The tissue to tissue ratio at 5 min (read-out: Tumor/blood ratio) was 0.89 ± 0.14, the tissue uptake at 0.5 h (read-out: Blood uptake) was 1.61 ± 0.18 %ID/g and the tissue uptake at 0.5 h (read-out: Brain uptake) was 0.09 ± 0.01 %ID/g. For the same compound, the tissue uptake at 0.5 h (read-out: Heart uptake) was 0.97 ± 0.15 %ID/g, the tissue uptake at 0.5 h (read-out: Liver uptake) was 1.15 ± 0.19 %ID/g and the tissue uptake at 0.5 h (read-out: Lung uptake) was 2.29 ± 0.26 %ID/g. For the same compound, the tissue uptake at 0.5 h (read-out: Muscle uptake) was 1.11 ± 0.34 %ID/g, the tissue uptake at 0.5 h (read-out: Pancreas uptake) was 0.74 ± 0.1 %ID/g and the tissue uptake at 0.5 h [1] was 0.77 ± 0.31 %ID/g. It also gave a tissue uptake at 0.5 h (read-out: Thymus uptake) of 2.35 ± 0.66 %ID/g, a tissue uptake at 0.5 h (read-out: Tumor uptake) of 6.96 ± 0.31 %ID/g and a tissue to tissue ratio at 0.5 h (read-out: Tumor/Muscle ratio) of 6.4 ± 3.6. For the same compound, the tissue to tissue ratio at 0.5 h (read-out: Tumor/Pancreas ratio) was 7.08 ± 2.57, the tissue to tissue ratio at 0.5 h (read-out: Tumor/blood ratio) was 3.31 ± 1.17 and the tissue uptake at 1 h (read-out: Blood uptake) was 0.49 ± 0.07 %ID/g. The tissue uptake at 1 h (read-out: Brain uptake) was 0.04 ± 0.01 %ID/g, the tissue uptake at 1 h (read-out: Heart uptake) was 0.29 ± 0.08 %ID/g and the tissue uptake at 1 h (read-out: Liver uptake) was 0.32 ± 0.02 %ID/g. The tissue uptake at 1 h (read-out: Lung uptake) was 0.65 ± 0.04 %ID/g, the tissue uptake at 1 h (read-out: Muscle uptake) was 0.21 ± 0.05 %ID/g and the tissue uptake at 1 h (read-out: Pancreas uptake) was 0.16 ± 0.01 %ID/g. For the same compound, the tissue uptake at 1 h [1] was 0.15 ± 0.03 %ID/g, the tissue uptake at 1 h (read-out: Tumor uptake) was 4.68 ± 0.25 %ID/g and the tissue to tissue ratio at 1 h (read-out: Tumor/Muscle ratio) was 25.8 ± 6.71. For the same compound, the tissue to tissue ratio at 1 h (read-out: Tumor/Pancreas ratio) was 28.8 ± 0.97, the tissue to tissue ratio at 1 h (read-out: Tumor/blood ratio) was 9.86 ± 1.1 and the tissue uptake at 1.5 h (read-out: Blood uptake) was 1.18 ± 0.27 %ID/g. For the same compound, the tissue uptake at 1.5 h (read-out: Brain uptake) was 0.05 ± 0.01 %ID/g, the tissue uptake at 1.5 h (read-out: Femur uptake) was 0.68 ± 0.11 %ID/g and the tissue uptake at 1.5 h (read-out: Heart uptake) was 0.76 ± 0.13 %ID/g. The tissue uptake at 1.5 h (read-out: Liver uptake) was 0.9 ± 0.17 %ID/g, the tissue uptake at 1.5 h (read-out: Lung uptake) was 1.4 ± 0.27 %ID/g and the tissue uptake at 1.5 h (read-out: Muscle uptake) was 0.37 ± 0.11 %ID/g. The tissue uptake at 1.5 h (read-out: Pancreas uptake) was 0.57 ± 0.15 %ID/g, the tissue uptake at 1.5 h [1] was 0.27 ± 0.06 %ID/g and the tissue uptake at 1.5 h (read-out: Thymus uptake) was 1.64 ± 0.42 %ID/g. The tissue uptake at 1.5 h (read-out: Tumor uptake) was 6.04 ± 1.46 %ID/g, the tissue to tissue ratio at 1.5 h (read-out: Tumor/Muscle ratio) was 17 ± 2.11 and the tissue to tissue ratio at 1.5 h (read-out: Tumor/Pancreas ratio) was 10.7 ± 0.2. It also gave a tissue to tissue ratio at 1.5 h (read-out: Tumor/blood ratio) of 5.43 ± 1.32, a tissue uptake at 2 h (read-out: Blood uptake) of 0.9 ± 0.29 %ID/g and a tissue uptake at 2 h (read-out: Brain uptake) of 0.05 ± 0.01 %ID/g. The tissue uptake at 2 h (read-out: Femur uptake) was 0.83 ± 0.33 %ID/g, the tissue uptake at 2 h (read-out: Heart uptake) was 0.68 ± 0.17 %ID/g and the tissue uptake at 2 h (read-out: Liver uptake) was 0.84 ± 0.13 %ID/g. The tissue uptake at 2 h (read-out: Lung uptake) was 1.15 ± 0.22 %ID/g and the tissue uptake at 2 h (read-out: Muscle uptake) was 0.26 ± 0.04 %ID/g.
